Test systems include OVCAR-4 ovarian; DU-145 prostate; PC-3 prostate; MOLT-4 leukemia; HS 578T breast; SW-620 colon; A498 renal; A549 NSCLC; SR leukemia; UACC-62 melanoma.
Common to all, as to test: inhibition of tumour cell growth, NCI panel, 48 h

Each structure is given as a SMILES string.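 Interpolation was linear, between the two tested concentrations surrounding the appropriate level; five concentrations were tested over 48 hours in 96-well plates. GI50 = concentration required for 50% inhibition of growth. TGI: concentration producing complete growth inhibition.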

For `CN(Cc1ccccc1)C(=NC#N)N(Cc1ccccc1)Cc1ccccc1`, the TGI in the test on OVCAR-4 ovarian was over 93 µM; with DU-145 prostate, over 100 µM; with PC-3 prostate, 39.5 µM; with MOLT-4 leukemia, over 100 µM; in the test with HS 578T breast, over 100 µM; in the test with SW-620 colon it was over 100 µM. For the same molecule, the TGI is over 100 µM in the test with A498 renal, over 100 µM in the test with A549 NSCLC, over 100 µM in the test with SR leukemia and 55.6 µM in the test with UACC-62 melanoma.
`COc1cc(/C=C\c2cc(OC)c(OC)c(OC)c2)cc(NC(=O)/C=C/c2cc(OC)c(OC)c(OC)c2)c1OC`: the GI50 was 3.86 µM in the test with OVCAR-4 ovarian; over 100 µM in the test with DU-145 prostate; 3.02 µM in the test with PC-3 prostate; 3.15 µM in the test with MOLT-4 leukemia; over 100 µM in the test with HS 578T breast; 5.89 µM in the test on SW-620 colon. The GI50 was 5.21 µM in the test on A498 renal, 4.49 µM with A549 NSCLC, 0.23 µM with SR leukemia and 2.19 µM in the test on UACC-62 melanoma. Also, the TGI in the test with OVCAR-4 ovarian, in the test with DU-145 prostate, with PC-3 prostate, in the test on MOLT-4 leukemia, in the test on HS 578T breast and in the test with SW-620 colon was over 100 µM in each case. The TGI in the test on A498 renal, in the test with A549 NSCLC, in the test on SR leukemia and in the test with UACC-62 melanoma was over 100 µM each time.
Turning to `O=c1[nH]c(=O)c2cn[nH]c2[nH]1`, the GI50 with OVCAR-4 ovarian, in the test with DU-145 prostate, in the test with PC-3 prostate, in the test on MOLT-4 leukemia, with HS 578T breast and in the test with SW-620 colon was over 100 µM throughout. In addition, the GI50 in the test on A498 renal, in the test with A549 NSCLC, with SR leukemia and in the test with UACC-62 melanoma was over 100 µM each time. The TGI in the test on OVCAR-4 ovarian, with DU-145 prostate, in the test on PC-3 prostate, with MOLT-4 leukemia, with HS 578T breast and with SW-620 colon was over 100 µM throughout. Further, the TGI in the test with A498 renal, in the test on A549 NSCLC, with SR leukemia and with UACC-62 melanoma was over 100 µM in each case.
Take `C=C(C)[C@@H]1CC[C@]2(C)CC[C@]3(C)[C@H](CC[C@@H]4[C@@]5(C)CC[C@H](O)C(C)(C)[C@@H]5CC[C@]43C)[C@@H]12`: the TGI in the test on OVCAR-4 ovarian is over 100 µM; with DU-145 prostate it was over 100 µM; in the test on PC-3 prostate it was 98.4 µM; with MOLT-4 leukemia, over 70.3 µM; with HS 578T breast it was 61.7 µM; with SW-620 colon, over 72.3 µM. The TGI with A498 renal is 32.6 µM; in the test with A549 NSCLC it was over 100 µM; in the test on SR leukemia it was over 100 µM; with UACC-62 melanoma, over 100 µM.
As for `COC(=O)C1CC23CCCN4CCC5(c6ccccc6N(C=O)C15CC2)C43` (stereo not given), the TGI in the test with OVCAR-4 ovarian, with DU-145 prostate, in the test with PC-3 prostate, in the test with MOLT-4 leukemia, in the test on HS 578T breast and in the test on SW-620 colon was over 100 µM in each case. Moreover, the TGI in the test on A498 renal, in the test with A549 NSCLC, in the test with SR leukemia and with UACC-62 melanoma was over 100 µM in each case.
In the case of `N=C1C(c2nc3ccccc3s2)=C(O)CN1c1ccc(F)c(Cl)c1`, the GI50 in the test with OVCAR-4 ovarian was 20.5 µM; in the test on DU-145 prostate it was 36.1 µM; in the test on PC-3 prostate, 4.04 µM; in the test on MOLT-4 leukemia, 19.6 µM; in the test on HS 578T breast, 22.9 µM; in the test with SW-620 colon, 58.7 µM. Also, the GI50 in the test with A498 renal is 31.2 µM; in the test with A549 NSCLC it was 11.2 µM; in the test with SR leukemia it was 0.666 µM; in the test on UACC-62 melanoma it was 16.8 µM. The TGI with OVCAR-4 ovarian is over 100 µM; in the test with DU-145 prostate, over 100 µM; with PC-3 prostate, 30.8 µM; in the test on MOLT-4 leukemia it was over 100 µM; in the test with HS 578T breast, 64.5 µM; with SW-620 colon it was over 100 µM. In addition, the TGI in the test with A498 renal is 73.2 µM; in the test with A549 NSCLC it was 62.2 µM; in the test with SR leukemia, 6.33 µM; in the test on UACC-62 melanoma it was 52.7 µM.
For the molecule `N#Cc1ccc(OCc2nc(N)nc(N)c2-c2ccc(Cl)c(Cl)c2)cc1`, the GI50 is 6.43 µM with OVCAR-4 ovarian; 3.6 µM in the test on DU-145 prostate; 0.613 µM in the test on PC-3 prostate; 3.7 µM in the test with MOLT-4 leukemia; 2.65 µM in the test with HS 578T breast; 0.484 µM in the test on SW-620 colon. The GI50 with A498 renal is 1.43 µM; in the test on A549 NSCLC, 0.405 µM; in the test on SR leukemia, 4.03 µM; with UACC-62 melanoma, 0.467 µM. The TGI is over 100 µM in the test on OVCAR-4 ovarian; over 100 µM in the test on DU-145 prostate; over 100 µM in the test with PC-3 prostate; 40.8 µM in the test on MOLT-4 leukemia; 41.3 µM with HS 578T breast; over 100 µM in the test on SW-620 colon. Also, the TGI in the test on A498 renal stood at 10.8 µM; in the test on A549 NSCLC, 15.8 µM; with SR leukemia it was 66.2 µM; with UACC-62 melanoma, 87.7 µM.
For `CCCCON(OC(=O)c1ccc2ccccc2c1)C(=O)c1ccccc1`, the GI50 in the test with OVCAR-4 ovarian is over 100 µM; in the test on DU-145 prostate, over 100 µM; with PC-3 prostate it was over 100 µM; with MOLT-4 leukemia, 29.2 µM; with HS 578T breast, over 100 µM; in the test with SW-620 colon, 36.3 µM. Also, the GI50 was over 100 µM in the test on A498 renal, over 100 µM in the test with A549 NSCLC, 31.5 µM in the test with SR leukemia and over 100 µM in the test on UACC-62 melanoma. Moreover, the TGI is over 100 µM with OVCAR-4 ovarian; over 100 µM with DU-145 prostate; over 100 µM in the test with PC-3 prostate; 68.4 µM with MOLT-4 leukemia; over 100 µM in the test on HS 578T breast; over 100 µM with SW-620 colon. Besides, the TGI in the test with A498 renal is over 100 µM; in the test with A549 NSCLC it was over 100 µM; with SR leukemia, 77.1 µM; with UACC-62 melanoma, over 100 µM.
`Oc1c(-c2nnc(-c3ccccc3Cl)o2)sc2nnc(-c3ccccc3)c(-c3ccccc3)c12`: the GI50 in the test on OVCAR-4 ovarian is 4.49 µM; with DU-145 prostate, 8.26 µM; in the test on PC-3 prostate, 3.15 µM; in the test on MOLT-4 leukemia, 3.88 µM; with HS 578T breast, 3.78 µM; in the test with SW-620 colon it was 4.07 µM. For the same molecule, the GI50 in the test with A498 renal was 7.35 µM; in the test on A549 NSCLC, 4.31 µM; in the test on SR leukemia, 3.96 µM; with UACC-62 melanoma, 2.64 µM. Besides, the TGI in the test on OVCAR-4 ovarian was over 100 µM; with DU-145 prostate it was over 100 µM; in the test on PC-3 prostate, over 100 µM; in the test with MOLT-4 leukemia, over 100 µM; with HS 578T breast, over 100 µM; with SW-620 colon, 25.3 µM. Further, the TGI was 41.7 µM in the test with A498 renal, 61.5 µM in the test on A549 NSCLC, over 100 µM with SR leukemia and 9.49 µM in the test on UACC-62 melanoma.

For the origin of these results see PubChem BioAssay (NCI).
